system: not listed separately; experiment: Lipophilicity, log D of the compound; type: physicochemical; details: octanol/water

SMILES | logD
Clc1ccc(COC(Cn2ccnc2)c2ccc(Cl)cc2Cl)c(Cl)c1 (centres undefined) [MICONAZOLE] | 5.55
CC(C)(C)c1ccc(C(O)CCCN2CCC(C(O)(c3ccccc3)c3ccccc3)CC2)cc1 (centres undefined) [TERFENADINE] | 3.72
Oc1cccc2ncccc12 | 1.46
COCCc1ccc(OCC(O)CNC(C)C)cc1 (centres undefined) [METOPROLOL] | -0.81
CC(=O)Nc1cnc(-c2ccccc2)o1 | 1.22
C[C@]12CC[C@H]3[C@@H](CCC4=CC(=O)CC[C@@]43C)[C@@H]1CC[C@@H]2O [TESTOSTERONE] | 3.48
N#Cc1ccc(-c2ccccc2O)cc1C(F)(F)F | 3.63
O=C(O)c1cccnc1Nc1cccc(C(F)(F)F)c1 [NIFLUMIC ACID] | 2.01
CC1(C)C(=O)N(c2ccc(C#N)c(C(F)(F)F)c2)C(=O)N1CCCCO [RU-58841] | 2.41
Nc1ccc(S(=O)(=O)Nc2ccccn2)cc1 [SULFAPYRIDINE] | 0.03
C[C@@H]1C[C@H]2[C@@H]3CCC4=CC(=O)C=C[C@]4(C)[C@@]3(F)[C@@H](O)C[C@]2(C)[C@H]1C(=O)CO [DESOXIMETASONE] | 2
CCOC(=O)[C@H](CCc1ccccc1)N[C@@H](C)C(=O)N1CCC[C@H]1C(=O)O.O=C(O)/C=C\C(=O)O [ENALAPRIL MALEATE] | -0.55
C[C@@H]1C[C@H]2[C@@H]3CCC4=CC(=O)C=C[C@]4(C)[C@@]3(F)[C@@H](O)C[C@]2(C)[C@@]1(O)C(=O)CO [DEXAMETHASONE] | 1.87
COc1ccc2[nH]c([S+]([O-])Cc3ncc(C)c(OC)c3C)nc2c1 (centres undefined) [OMEPRAZOLE] | 2.16
NC(=O)N1c2ccccc2C=Cc2ccccc21 [CARBAMAZEPINE] | 2.67
CC(C(=O)O)c1cccc(C(=O)c2ccccc2)c1 (centres undefined) [KETOPROFEN] | 0.56

SMILES | logD
C[C@]12CCC(=O)C=C1CC[C@@H]1[C@@H]2[C@@H](O)C[C@@]2(C)[C@H]1CC[C@]2(O)C(=O)CO [HYDROCORTISONE] | 1.43
Cc1nn(-c2ccccc2)c(C)c1/C=N/N1CCN(Cc2ccccc2)CC1 | 3.65
C[C@]12C[C@H](O)[C@H]3[C@@H](CCC4=CC(=O)CC[C@@]43C)[C@@H]1CC[C@@H]2C(=O)CO [CORTICOSTERONE] | 1.76
O=C(O)c1cc(/N=N/c2ccc(S(=O)(=O)Nc3ccccn3)cc2)ccc1O [SULFASALAZINE] | 0.05
Cl.Clc1cccc(Cl)c1NC1=NCCN1 [CLONIDINE HYDROCHLORIDE] | 0.37
C[C@H](c1ccccc1)N(C)c1cc(C(F)(F)F)c(C#N)cn1 | 5.59
COc1ccc2c(c1)c(CC(=O)O)c(C)n2C(=O)c1ccc(Cl)cc1 [INDOMETHACIN] | 0.59
CN(C)CCCN1c2ccccc2Sc2ccc(Cl)cc21 [CHLORPROMAZINE] | 2.15
NS(=O)(=O)c1cc2c(cc1Cl)N=CNS2(=O)=O [CHLOROTHIAZIDE] | -0.78
CC(C)Cn1c(=O)n(C)c(=O)c2[nH]cnc21 [ISOBUTYLMETHYLXANTHINE] | 2
CC(=O)CC(c1ccccc1)c1c(O)c2ccccc2oc1=O (centres undefined) [WARFARIN] | 1.43
Cc1cc(=O)n(-c2ccccc2)n1C [ANTIPYRINE] | 0.27
Nc1cc(N2CCCCC2)nc(N)[n+]1[O-] [MINOXIDIL] | -3.99
CC(C)(C)NCC(O)c1cc(O)cc(O)c1 (centres undefined) [TERBUTALINE] | -2.14
CN1C(C(=O)Nc2ccccn2)=C(O)c2ccccc2S1(=O)=O [PIROXICAM] | -0.35
CCCn1c(=O)[nH]c(=O)c2[nH]cnc21 [ENPROFYLLINE] | 0.27

system: Zone of skin; experiment: Permeability in human skin after 48 hrs by Franz cell permeability assay; details: not given

SMILES | log Pe
CCOC(=O)[C@H](CCc1ccccc1)N[C@@H](C)C(=O)N1CCC[C@H]1C(=O)O.O=C(O)/C=C\C(=O)O [ENALAPRIL MALEATE] | -1.72
NS(=O)(=O)c1cc2c(cc1Cl)NCNS2(=O)=O [HYDROCHLOROTHIAZIDE] | -2
NC(=O)N1c2ccccc2C=Cc2ccccc21 [CARBAMAZEPINE] | 0.18
O=C(O)c1cc(/N=N/c2ccc(S(=O)(=O)Nc3ccccn3)cc2)ccc1O [SULFASALAZINE] | -1.31
Cl.Clc1cccc(Cl)c1NC1=NCCN1 [CLONIDINE HYDROCHLORIDE] | -0.68
CCN1CCCC1CNC(=O)c1cc(S(N)(=O)=O)ccc1OC (centres undefined) [SULPIRIDE] | -1.48
CC(=O)[C@H]1CC[C@H]2[C@@H]3CCC4=CC(=O)CC[C@]4(C)[C@H]3CC[C@]12C [PROGESTERONE] | 1.08

From ChEMBL document CHEMBL1153196, “Development of an in silico model for human skin permeation based on a Franz cell skin permeability assay” (Bioorg Med Chem Lett, 2010)
